System: K24384-001-R-PDC complex spheroids, viability
Assay: Anticancer human tumor K24384-001-R-PDC patient-derived pancreatic adenocarcinoma cell line growth inhibition [GQUAD]
Conditions: for IC50: curve of first compound; for viability, T/C: stronger effect = lower value
Summary of the method: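 Viability of tumor cells grown as complex spheroids with endothelial and stromal cells, exposed to drug combinations. Top concentration at or near clinical Cmax (else 10 microM), diluted in half-log increments.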

[1] = second compound 0.0316 µM, first compound 0.0316 µM
[2] = second compound 0.0316 µM, first compound 0.316 µM
[3] = second compound 0.1 µM, first compound 0.0316 µM
[4] = second compound 0.1 µM, first compound 0.316 µM
[5] = second compound 0.316 µM, first compound 0.0316 µM
[6] = second compound 0.316 µM, first compound 0.316 µM
[7] = second compound 1 µM, first compound 0.0316 µM
[8] = second compound 1 µM, first compound 0.316 µM
[9] = second compound 3.16 µM, first compound 0.0316 µM
[10] = second compound 3.16 µM, first compound 0.316 µM
[11] = second compound 10 µM, first compound 0.0316 µM
[12] = second compound 10 µM, first compound 0.316 µM
[13] = second compound 0.0316 µM, first compound 0.1 µM
[14] = second compound 0.0316 µM, first compound 1 µM
[15] = second compound 0.0316 µM, first compound 3.16 µM
[16] = second compound 0.0316 µM, first compound 10 µM
[17] = second compound 0.1 µM, first compound 0.1 µM
[18] = second compound 0.1 µM, first compound 1 µM
[19] = second compound 0.1 µM, first compound 3.16 µM
[20] = second compound 0.1 µM, first compound 10 µM
[21] = second compound 0.316 µM, first compound 0.1 µM
[22] = second compound 0.316 µM, first compound 1 µM
[23] = second compound 0.316 µM, first compound 3.16 µM
[24] = second compound 0.316 µM, first compound 10 µM
[25] = second compound 1 µM, first compound 0.1 µM
[26] = second compound 1 µM, first compound 1 µM
[27] = second compound 1 µM, first compound 3.16 µM
[28] = second compound 1 µM, first compound 10 µM
[29] = second compound 3.16 µM, first compound 0.1 µM
[30] = second compound 3.16 µM, first compound 1 µM
[31] = second compound 3.16 µM, first compound 3.16 µM
[32] = second compound 3.16 µM, first compound 10 µM
[33] = second compound 10 µM, first compound 0.1 µM
[34] = second compound 10 µM, first compound 1 µM
[35] = second compound 10 µM, first compound 3.16 µM
[36] = second compound 10 µM, first compound 10 µM
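Further: spheroids exposed to compounds for seven days.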

Which results are given for `Cc1[nH]c2ccccc2c1CCNCc1ccc(/C=C/C(=O)NO)cc1` + CN(C)c1ccc(Nc2c3ccc(NC(=O)CCN4CCCC4)cc3nc3cc(NC(=O)CCN4CCCC4)ccc23)cc1?
IC50 (second compound 0.0316 µM): 139 nM; IC50 (second compound 0.1 µM): 103 nM; IC50 (second compound 0.316 µM): 101 nM; IC50 (second compound 1 µM): 109 nM; IC50 (second compound 3.16 µM): 99.1 nM; IC50 (second compound 10 µM): 83.7 nM; viability, T/C (second compound 0.0316 µM, first compound 0.000999 µM): 106%; viability, T/C (second compound 0.0316 µM, first compound 0.00316 µM): 99%; viability, T/C (second compound 0.0316 µM, first compound 0.00999 µM): 101%; viability, T/C [1]: 105%; viability, T/C (second compound 0.0316 µM, first compound 0.0999 µM): 67.5%; viability, T/C [2]: 6.39%; viability, T/C (second compound 0.1 µM, first compound 0.000999 µM): 113%; viability, T/C (second compound 0.1 µM, first compound 0.00316 µM): 106%; viability, T/C (second compound 0.1 µM, first compound 0.00999 µM): 107%; viability, T/C [3]: 105%; viability, T/C (second compound 0.1 µM, first compound 0.0999 µM): 51%; viability, T/C [4]: 7.07%; viability, T/C (second compound 0.316 µM, first compound 0.000999 µM): 104%; viability, T/C (second compound 0.316 µM, first compound 0.00316 µM): 89.3%; viability, T/C (second compound 0.316 µM, first compound 0.00999 µM): 95.3%; viability, T/C [5]: 100%; viability, T/C (second compound 0.316 µM, first compound 0.0999 µM): 50.4%; viability, T/C [6]: 4.91%; viability, T/C (second compound 1 µM, first compound 0.000999 µM): 93.5%; viability, T/C (second compound 1 µM, first compound 0.00316 µM): 100%; viability, T/C (second compound 1 µM, first compound 0.00999 µM): 114%; viability, T/C [7]: 103%; viability, T/C (second compound 1 µM, first compound 0.0999 µM): 53.4%; viability, T/C [8]: 5.91%; viability, T/C (second compound 3.16 µM, first compound 0.000999 µM): 96.4%; viability, T/C (second compound 3.16 µM, first compound 0.00316 µM): 101%; viability, T/C (second compound 3.16 µM, first compound 0.00999 µM): 104%; viability, T/C [9]: 94.6%; viability, T/C (second compound 3.16 µM, first compound 0.0999 µM): 49.7%; viability, T/C [10]: 6.33%; viability, T/C (second compound 10 µM, first compound 0.000999 µM): 90.7%; viability, T/C (second compound 10 µM, first compound 0.00316 µM): 91.7%; viability, T/C (second compound 10 µM, first compound 0.00999 µM): 101%; viability, T/C [11]: 97.1%; viability, T/C (second compound 10 µM, first compound 0.0999 µM): 41.8%; viability, T/C [12]: 6.78%

`Nc1ccn(C2OC(CO)C(O)C2(F)F)c(=O)n1` (stereo unspecified) + CN(C)c1ccc(Nc2c3ccc(NC(=O)CCN4CCCC4)cc3nc3cc(NC(=O)CCN4CCCC4)ccc23)cc1 was tested. Which IC50 (second compound 0.0316 µM) did it give?
Its IC50 is 238 nM.

And the IC50 (second compound 0.1 µM)?
Its IC50 is 157 nM.

And the IC50 (second compound 0.316 µM)?
Its IC50 is 152 nM.

And the IC50 (second compound 1 µM)?
Its IC50 is 111 nM.

What about the IC50 (second compound 3.16 µM) of the same compound?
Its IC50 is 144 nM.

What about the IC50 (second compound 10 µM) of the same compound?
The IC50 was 118 nM.

What about the viability, T/C [1] of the same compound?
Its viability, T/C is 73.4%.

And the viability, T/C [13]?
Its viability, T/C is 66.5%.

And the viability, T/C [2]?
The viability, T/C was 40.9%.

What about the viability, T/C [14] of the same compound?
Its viability, T/C is 35.9%.

And the viability, T/C [15]?
The viability, T/C was 23.1%.

And the viability, T/C [16]?
The viability, T/C was 21.4%.

And the viability, T/C [3]?
The viability, T/C was 78.1%.

And the viability, T/C [17]?
Its viability, T/C is 57.2%.

And the viability, T/C [4]?
The viability, T/C was 38.2%.

What about the viability, T/C [18] of the same compound?
Its viability, T/C is 30.8%.

And the viability, T/C [19]?
Its viability, T/C is 19.8%.

And the viability, T/C [20]?
Its viability, T/C is 19.8%.

And the viability, T/C [5]?
The viability, T/C was 68.1%.

What about the viability, T/C [21] of the same compound?
Its viability, T/C is 56.6%.

What about the viability, T/C [6] of the same compound?
Its viability, T/C is 38.7%.

And the viability, T/C [22]?
The viability, T/C was 30.3%.

And the viability, T/C [23]?
The viability, T/C was 20.6%.

And the viability, T/C [24]?
Its viability, T/C is 17.2%.

And the viability, T/C [7]?
Its viability, T/C is 71.9%.

And the viability, T/C [25]?
Its viability, T/C is 49.9%.

And the viability, T/C [8]?
Its viability, T/C is 39.2%.

And the viability, T/C [26]?
The viability, T/C was 24.4%.

And the viability, T/C [27]?
The viability, T/C was 19.9%.

What about the viability, T/C [28] of the same compound?
The viability, T/C was 16.8%.

And the viability, T/C [9]?
The viability, T/C was 76.5%.

And the viability, T/C [29]?
Its viability, T/C is 57.6%.

What about the viability, T/C [10] of the same compound?
The viability, T/C was 33.7%.

What about the viability, T/C [30] of the same compound?
Its viability, T/C is 23.3%.

What about the viability, T/C [31] of the same compound?
Its viability, T/C is 18.6%.

And the viability, T/C [32]?
The viability, T/C was 15.6%.

And the viability, T/C [11]?
The viability, T/C was 63.6%.

And the viability, T/C [33]?
Its viability, T/C is 54.1%.

And the viability, T/C [12]?
The viability, T/C was 32.8%.

And the viability, T/C [34]?
Its viability, T/C is 27.9%.

And the viability, T/C [35]?
The viability, T/C was 18.3%.

And the viability, T/C [36]?
The viability, T/C was 18.2%.

How did the IC50 (second compound 0.0316 µM) turn out when `O=c1[nH]cc(F)c(=O)[nH]1` + CN(C)c1ccc(Nc2c3ccc(NC(=O)CCN4CCCC4)cc3nc3cc(NC(=O)CCN4CCCC4)ccc23)cc1 was run?
Its IC50 is 2200 nM.

What about the IC50 (second compound 0.1 µM) of the same compound?
Its IC50 is 1570 nM.

And the IC50 (second compound 0.316 µM)?
The IC50 was 1650 nM.

And the IC50 (second compound 1 µM)?
The IC50 was 1260 nM.

What about the IC50 (second compound 3.16 µM) of the same compound?
The IC50 was 1360 nM.

What about the IC50 (second compound 10 µM) of the same compound?
Its IC50 is 1750 nM.

What about the viability, T/C [1] of the same compound?
The viability, T/C was 111%.

And the viability, T/C [13]?
The viability, T/C was 71.7%.

What about the viability, T/C [2] of the same compound?
Its viability, T/C is 88.4%.

And the viability, T/C [14]?
Its viability, T/C is 52.4%.

What about the viability, T/C [15] of the same compound?
Its viability, T/C is 42.5%.

What about the viability, T/C [16] of the same compound?
The viability, T/C was 40.3%.

And the viability, T/C [3]?
Its viability, T/C is 98.7%.

What about the viability, T/C [17] of the same compound?
Its viability, T/C is 100%.

And the viability, T/C [4]?
Its viability, T/C is 66.5%.

And the viability, T/C [18]?
The viability, T/C was 59.2%.

What about the viability, T/C [19] of the same compound?
The viability, T/C was 42.7%.

What about the viability, T/C [20] of the same compound?
Its viability, T/C is 33.3%.

What about the viability, T/C [5] of the same compound?
The viability, T/C was 94.8%.

What about the viability, T/C [21] of the same compound?
The viability, T/C was 94.8%.

What about the viability, T/C [6] of the same compound?
The viability, T/C was 72.6%.

And the viability, T/C [22]?
Its viability, T/C is 59.1%.

And the viability, T/C [23]?
The viability, T/C was 40.4%.

And the viability, T/C [24]?
The viability, T/C was 32.5%.

What about the viability, T/C [7] of the same compound?
Its viability, T/C is 90.2%.

And the viability, T/C [25]?
Its viability, T/C is 88.8%.

What about the viability, T/C [8] of the same compound?
Its viability, T/C is 72.4%.

And the viability, T/C [26]?
Its viability, T/C is 57.5%.

And the viability, T/C [27]?
The viability, T/C was 31.3%.

What about the viability, T/C [28] of the same compound?
Its viability, T/C is 32.1%.

And the viability, T/C [9]?
The viability, T/C was 83.9%.

What about the viability, T/C [29] of the same compound?
Its viability, T/C is 89.5%.

What about the viability, T/C [10] of the same compound?
Its viability, T/C is 65.9%.

What about the viability, T/C [30] of the same compound?
Its viability, T/C is 57.3%.

And the viability, T/C [31]?
The viability, T/C was 37.6%.

What about the viability, T/C [32] of the same compound?
The viability, T/C was 31.5%.

What about the viability, T/C [11] of the same compound?
The viability, T/C was 83.4%.

And the viability, T/C [33]?
The viability, T/C was 85.2%.

What about the viability, T/C [12] of the same compound?
The viability, T/C was 62.2%.

What about the viability, T/C [34] of the same compound?
Its viability, T/C is 69%.

And the viability, T/C [35]?
Its viability, T/C is 34.1%.

And the viability, T/C [36]?
Its viability, T/C is 31.7%.

From PubChem BioAssay AID2060483 (Molecular Pharmacology Branch, DTP, NCI, 2025)
